According to US9126999B2, “Tetrahydropyrazolopyrimidine compounds” (EISAI R&D MANAGEMENT CO., LTD., priority 2012, dated 2015):

Key:
Human TLR7 = target: T1, Human TLR7 (Homo sapiens, UniProt Q9NYK1); experiment: HEK-293 NF-kappaB luciferase reporter assay, CL097 stimulus; format: cell-based; details: ligand CL097, analyte NFkB-luciferase
T1 construct: engineered to stably and individually express human TLR4, TLR7 or TLR9 full-length ORF cDNAs; host or cells: HEK-293 (ATCC) with ELAM-1 NF-kappaB luciferase reporter
T1 sequence (Q9NYK1 27-1049): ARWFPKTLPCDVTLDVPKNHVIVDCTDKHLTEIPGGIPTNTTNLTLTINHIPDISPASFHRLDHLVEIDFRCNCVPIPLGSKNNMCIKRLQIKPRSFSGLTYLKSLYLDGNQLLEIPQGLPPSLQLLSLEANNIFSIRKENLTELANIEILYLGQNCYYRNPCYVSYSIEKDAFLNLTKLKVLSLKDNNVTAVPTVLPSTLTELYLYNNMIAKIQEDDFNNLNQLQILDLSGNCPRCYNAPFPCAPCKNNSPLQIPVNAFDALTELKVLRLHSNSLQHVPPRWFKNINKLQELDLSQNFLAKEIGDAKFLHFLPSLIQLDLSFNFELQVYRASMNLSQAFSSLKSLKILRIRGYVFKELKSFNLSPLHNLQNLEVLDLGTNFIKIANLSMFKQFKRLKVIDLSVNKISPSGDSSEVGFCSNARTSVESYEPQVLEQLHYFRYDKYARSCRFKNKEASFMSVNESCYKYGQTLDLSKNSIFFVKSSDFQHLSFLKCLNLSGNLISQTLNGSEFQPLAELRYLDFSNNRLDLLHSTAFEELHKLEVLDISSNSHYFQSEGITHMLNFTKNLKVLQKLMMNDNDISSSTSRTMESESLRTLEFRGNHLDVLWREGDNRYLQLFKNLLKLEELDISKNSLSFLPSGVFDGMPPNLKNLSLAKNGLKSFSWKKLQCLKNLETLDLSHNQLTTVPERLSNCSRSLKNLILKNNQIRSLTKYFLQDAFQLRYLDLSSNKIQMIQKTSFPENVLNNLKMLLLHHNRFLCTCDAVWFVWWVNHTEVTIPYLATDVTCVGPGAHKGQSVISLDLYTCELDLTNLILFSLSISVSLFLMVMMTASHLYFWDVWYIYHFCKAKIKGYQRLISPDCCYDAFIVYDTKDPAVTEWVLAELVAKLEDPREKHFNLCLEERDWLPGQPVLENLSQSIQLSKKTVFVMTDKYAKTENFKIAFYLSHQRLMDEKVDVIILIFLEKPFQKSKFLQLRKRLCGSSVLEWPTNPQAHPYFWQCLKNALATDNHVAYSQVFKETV
Text: (§1) In vitro pharmacology: HEK-293 cells (ATCC) were engineered to stably express a NF-kappaB transcription factor inducible E-selectin (ELAM-1) luciferase reporter derived from the plasmid pGL3 (Promega) containing base pairs −2241 bp to −254 bp from the promoter of the human E-selectin gene (Accession No. NM_000450). These cells were then subsequently engineered to stably and individually express human TLR4, TLR7 or TLR9 full-length ORF cDNAs. Human TLR4 cDNA (Accession No. NM_138554) was cloned into pcDNA 3.0 expression vector (Invitrogen). TLR4 transfected cells were also engineered to express human MD-2 co-receptor [MD-2 cDNA (Accession No. NM_015364) was cloned into the pEF-BOS vector] and were supplemented with 10 nM soluble CD14 (R&D Systems) in the media to optimize LPS responsiveness. Human TLR9 cDNA (Accession No. NM_017442) was cloned into the pBluescript II KS vector (Agilent). Human TLR7 cDNA (Accession No. NM_016562) was obtained from OriGene. HEK-293 cells stably expressing human TLR8 (Accession No. NM_138636) or mouse TLR7 (Accession No. NM_133211) were purchased from InvivoGen and were then stably transfected with pNiFty2(NF-kappaB)-luciferase reporter plasmid (InvivoGen). Each cell type was plated in Dulbecco's modified Eagle's medium (DMEM) containing 10% fetal bovine serum (FBS) at a density of 2.22×10^5 cells/ml into a 384-well plate and incubated for 2 days at 37° C., 5% CO2. Varying concentrations of antagonist compounds were then added. Cells were then incubated for another 30 minutes before adding the appropriate TLR agonist as follows (final concentrations indicated): lipopolysaccharide (LPS; Sigma) at 10 ng/ml for TLR4, CL097 (InvivoGen) at 3 ug/ml for human TLR7 and TLR8 and mouse TLR7, and CpG-2006-2A [sequence: […] (SEQ ID NO: 1) with phosphorothioate backbone, synthesized by Sigma-Aldrich] at 0.6 uM for TLR9.

Mouse TLR7 = target: T2, Mouse TLR7 (Mus musculus, UniProt P58681); experiment: as above; format: cell-based; details: ligand CL097, analyte NFkB-luciferase
T2 construct: endogenous in cells; host or cells: female BALB/c mice, in vivo
T2 sequence (P58681 27-1050): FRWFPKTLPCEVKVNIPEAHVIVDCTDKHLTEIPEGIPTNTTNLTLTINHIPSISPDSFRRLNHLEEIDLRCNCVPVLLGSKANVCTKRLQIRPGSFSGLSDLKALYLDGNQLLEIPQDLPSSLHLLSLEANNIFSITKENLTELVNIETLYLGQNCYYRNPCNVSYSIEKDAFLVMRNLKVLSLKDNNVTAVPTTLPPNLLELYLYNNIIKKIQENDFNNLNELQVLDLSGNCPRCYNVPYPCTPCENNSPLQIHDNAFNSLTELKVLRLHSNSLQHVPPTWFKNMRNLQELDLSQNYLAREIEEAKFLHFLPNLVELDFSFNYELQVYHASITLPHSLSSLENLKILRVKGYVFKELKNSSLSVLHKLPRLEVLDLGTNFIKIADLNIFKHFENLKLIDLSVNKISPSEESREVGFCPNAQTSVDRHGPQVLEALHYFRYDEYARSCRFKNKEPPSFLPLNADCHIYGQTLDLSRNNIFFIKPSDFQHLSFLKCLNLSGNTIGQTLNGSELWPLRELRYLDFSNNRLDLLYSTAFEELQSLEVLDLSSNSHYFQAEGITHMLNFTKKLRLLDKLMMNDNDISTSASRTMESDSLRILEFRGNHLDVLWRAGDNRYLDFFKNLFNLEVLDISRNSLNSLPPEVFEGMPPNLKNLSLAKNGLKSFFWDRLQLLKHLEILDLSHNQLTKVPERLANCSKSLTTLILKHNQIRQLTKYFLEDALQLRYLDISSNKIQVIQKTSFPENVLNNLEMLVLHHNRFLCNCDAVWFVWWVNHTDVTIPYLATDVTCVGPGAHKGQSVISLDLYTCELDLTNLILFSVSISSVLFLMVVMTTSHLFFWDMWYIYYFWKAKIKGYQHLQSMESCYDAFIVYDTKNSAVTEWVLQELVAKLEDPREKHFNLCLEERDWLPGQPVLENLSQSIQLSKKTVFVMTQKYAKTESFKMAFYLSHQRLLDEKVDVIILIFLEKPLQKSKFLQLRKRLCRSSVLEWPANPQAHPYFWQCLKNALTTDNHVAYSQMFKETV
Text: as §1

**Q.** How did the IC50 (Human TLR7) turn out when `COc1ccc([C@@H]2C[C@H](C(F)(F)F)n3nc(-c4ccc(C(=O)N5CCNCC5)cc4)cc3N2)cc1OC` [ER-892887, (4-((5S,7R)-5-(3,4-dimethoxyphenyl)-7-(trifluoromethyl)-4,5,6,7-tetrahydropyrazolo[1,5-a]pyrimidin-2-yl)phenyl)(piperazin-1-yl)methanone] was run?
**A.** 0.01 µM

**Q.** And the IC50 (Mouse TLR7)?
**A.** 0.276 µM
